Here are results for six compounds from ChEMBL document CHEMBL5212743, “Selectivity Literature for EUbOPEN Chemogenomics Library wave 3” (2023).

For assay [1], the target named is Ephrin type-A receptor 6 (Homo sapiens) (UniProt Q9UF33). The experiment in a line: Selectivity interaction (KinomeScan (DiscoverX)) EUB0000736a EPHA6. Conditions: at 1 µM.
In assay [2] the target is Dual specificity tyrosine-phosphorylation-regulated kinase 1B (Homo sapiens, UniProt Q9Y463). The assay can be described thus: Selectivity interaction (KinomeScan (DiscoverX)) EUB0000736a DYRK1B. The note with it: at 1 µM.
Assay [3] addresses Ephrin type-A receptor 4 (Homo sapiens) (UniProt P54764). The assay can be described thus: Selectivity interaction (KinomeScan (DiscoverX)) EUB0000736a EPHA4. The note with it: at 1 µM.
Assay [4] concerns Tyrosine-protein kinase ABL1 (Homo sapiens), P00519 [M351T]. The experiment in a line: (§1) Selectivity interaction (KinomeScan (DiscoverX)) EUB0000736a ABL1. Conditions: at 1 µM.
Assay [5] deals with Tyrosine-protein kinase ABL1 (Homo sapiens), P00519 [T315I]. The description is as §1. The note with it: at 10 µM.
The target of assay [6] is Ephrin type-B receptor 3 (Homo sapiens) (UniProt P54753). The assay can be described thus: Selectivity interaction (KinomeScan (DiscoverX)) EUB0000736a EPHB3. Conditions: at 1 µM.
Assay [7] deals with Histamine H1 receptor (Homo sapiens, UniProt P35367). The assay can be described thus: Selectivity interaction (GPCR panel (PDSP screen)) EUB0000350a HRH1. The note with it: at 10 µM.
Assay [8] deals with SRSF protein kinase 2 (Homo sapiens) (UniProt P78362). The assay can be described thus: Selectivity interaction (KinomeScan (DiscoverX)) EUB0000332a SRPK2. Conditions: at 1 µM.
Assay [9] deals with T1, G protein-coupled receptor kinase 3 (Homo sapiens) (UniProt P35626).
T1 sequence (whole entry): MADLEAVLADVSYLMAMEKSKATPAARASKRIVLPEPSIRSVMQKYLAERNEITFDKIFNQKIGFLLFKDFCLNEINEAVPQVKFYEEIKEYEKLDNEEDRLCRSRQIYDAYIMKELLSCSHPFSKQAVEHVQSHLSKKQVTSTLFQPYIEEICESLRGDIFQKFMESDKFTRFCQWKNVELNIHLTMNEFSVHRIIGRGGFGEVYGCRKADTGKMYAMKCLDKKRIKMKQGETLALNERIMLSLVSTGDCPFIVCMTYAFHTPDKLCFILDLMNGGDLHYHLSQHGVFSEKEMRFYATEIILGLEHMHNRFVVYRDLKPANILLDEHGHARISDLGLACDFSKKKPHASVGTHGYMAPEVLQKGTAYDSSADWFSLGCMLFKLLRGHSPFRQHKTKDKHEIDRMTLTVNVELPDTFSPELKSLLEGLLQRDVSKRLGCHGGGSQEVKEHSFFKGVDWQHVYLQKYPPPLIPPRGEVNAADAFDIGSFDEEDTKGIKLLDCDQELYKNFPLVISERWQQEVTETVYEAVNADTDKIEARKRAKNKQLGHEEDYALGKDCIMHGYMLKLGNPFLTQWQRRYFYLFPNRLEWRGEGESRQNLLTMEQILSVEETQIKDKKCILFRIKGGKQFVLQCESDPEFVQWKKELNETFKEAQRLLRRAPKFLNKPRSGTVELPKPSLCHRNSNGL
The experiment in a line: Selectivity interaction (KinomeScan (DiscoverX)) EUB0000332a ADRBK2. Conditions: at 1 µM.

Assay [10] concerns the target Megakaryocyte-associated tyrosine-protein kinase (Homo sapiens) (UniProt P42679). The experiment in a line: Selectivity interaction (KinomeScan (DiscoverX)) EUB0000332a MATK. The note with it: at 1 µM.
Assay [11] deals with Maternal embryonic leucine zipper kinase (Homo sapiens) (UniProt Q14680). The experiment in a line: Selectivity interaction (KinomeScan (DiscoverX)) EUB0000332a MELK. Conditions: at 1 µM.
Assay [12] addresses Platelet-derived growth factor receptor beta (Homo sapiens, UniProt P09619). The assay can be described thus: Selectivity interaction (KinomeScan (DiscoverX)) EUB0000634a PDGFRB. The note with it: at 1 µM.
Assay [13] has as its target Mitogen-activated protein kinase 9 (Homo sapiens, UniProt P45984). The experiment in a line: Selectivity interaction (KinomeScan (DiscoverX)) EUB0000634a MAPK9. The note with it: at 1 µM.
Assay [14] has as its target Mast/stem cell growth factor receptor Kit (Homo sapiens, UniProt P10721). The experiment in a line: Selectivity interaction (KinomeScan (DiscoverX)) EUB0000634a KIT. The note with it: at 1 µM.
Assay [15] addresses T2, Myosin-IIIb (Homo sapiens) (UniProt Q8WXR4).
T2 sequence (whole entry): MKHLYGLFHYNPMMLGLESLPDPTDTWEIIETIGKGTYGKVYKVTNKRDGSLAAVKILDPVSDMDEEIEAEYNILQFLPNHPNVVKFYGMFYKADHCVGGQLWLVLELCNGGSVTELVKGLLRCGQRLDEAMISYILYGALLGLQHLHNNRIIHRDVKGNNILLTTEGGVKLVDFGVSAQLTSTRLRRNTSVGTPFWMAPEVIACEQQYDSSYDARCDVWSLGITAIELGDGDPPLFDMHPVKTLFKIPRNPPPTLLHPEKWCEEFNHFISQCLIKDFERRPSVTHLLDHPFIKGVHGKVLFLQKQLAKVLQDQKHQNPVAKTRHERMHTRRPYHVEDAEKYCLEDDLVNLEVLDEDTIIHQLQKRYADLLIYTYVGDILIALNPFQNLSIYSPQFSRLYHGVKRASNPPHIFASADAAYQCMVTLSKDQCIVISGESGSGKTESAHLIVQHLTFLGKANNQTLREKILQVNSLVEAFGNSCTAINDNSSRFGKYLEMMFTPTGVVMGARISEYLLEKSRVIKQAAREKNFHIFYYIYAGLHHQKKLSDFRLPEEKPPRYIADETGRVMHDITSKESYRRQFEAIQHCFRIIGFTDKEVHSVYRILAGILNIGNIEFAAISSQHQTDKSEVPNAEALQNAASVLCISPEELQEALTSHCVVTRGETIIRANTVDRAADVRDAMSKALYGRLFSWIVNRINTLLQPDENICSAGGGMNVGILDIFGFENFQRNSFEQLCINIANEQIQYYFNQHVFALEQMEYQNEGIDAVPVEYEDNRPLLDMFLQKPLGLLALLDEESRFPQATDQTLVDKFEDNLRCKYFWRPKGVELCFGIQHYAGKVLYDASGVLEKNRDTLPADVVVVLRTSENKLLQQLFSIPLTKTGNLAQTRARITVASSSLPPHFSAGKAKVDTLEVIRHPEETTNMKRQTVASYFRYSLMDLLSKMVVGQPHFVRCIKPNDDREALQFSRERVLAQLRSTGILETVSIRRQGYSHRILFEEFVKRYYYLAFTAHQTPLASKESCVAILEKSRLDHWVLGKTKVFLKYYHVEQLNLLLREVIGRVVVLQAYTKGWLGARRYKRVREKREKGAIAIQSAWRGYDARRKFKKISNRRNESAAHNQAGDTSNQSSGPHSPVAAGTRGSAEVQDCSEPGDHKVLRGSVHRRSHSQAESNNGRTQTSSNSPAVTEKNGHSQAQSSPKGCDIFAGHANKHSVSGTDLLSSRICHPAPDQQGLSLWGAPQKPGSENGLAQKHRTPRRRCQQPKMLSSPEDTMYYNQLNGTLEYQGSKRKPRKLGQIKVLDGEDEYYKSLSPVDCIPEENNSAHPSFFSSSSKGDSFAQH
The experiment in a line: Selectivity interaction (KinomeScan (DiscoverX)) EUB0000339a MYO3B. The note with it: at 1 µM.

For assay [16], the target named is Serine/threonine-protein kinase Nek5 (Homo sapiens) (UniProt Q6P3R8). The assay can be described thus: Selectivity interaction (KinomeScan (DiscoverX)) EUB0000339a NEK5. The note with it: at 1 µM.
For assay [17], the target named is Receptor-interacting serine/threonine-protein kinase 1 (Homo sapiens) (UniProt Q13546). The assay can be described thus: Selectivity interaction (KinomeScan (DiscoverX)) EUB0000339a RIPK1. Conditions: at 1 µM.
For assay [18], the target named is T3, Homeodomain-interacting protein kinase 4 (Homo sapiens) (UniProt Q8NE63).
T3 sequence (whole entry): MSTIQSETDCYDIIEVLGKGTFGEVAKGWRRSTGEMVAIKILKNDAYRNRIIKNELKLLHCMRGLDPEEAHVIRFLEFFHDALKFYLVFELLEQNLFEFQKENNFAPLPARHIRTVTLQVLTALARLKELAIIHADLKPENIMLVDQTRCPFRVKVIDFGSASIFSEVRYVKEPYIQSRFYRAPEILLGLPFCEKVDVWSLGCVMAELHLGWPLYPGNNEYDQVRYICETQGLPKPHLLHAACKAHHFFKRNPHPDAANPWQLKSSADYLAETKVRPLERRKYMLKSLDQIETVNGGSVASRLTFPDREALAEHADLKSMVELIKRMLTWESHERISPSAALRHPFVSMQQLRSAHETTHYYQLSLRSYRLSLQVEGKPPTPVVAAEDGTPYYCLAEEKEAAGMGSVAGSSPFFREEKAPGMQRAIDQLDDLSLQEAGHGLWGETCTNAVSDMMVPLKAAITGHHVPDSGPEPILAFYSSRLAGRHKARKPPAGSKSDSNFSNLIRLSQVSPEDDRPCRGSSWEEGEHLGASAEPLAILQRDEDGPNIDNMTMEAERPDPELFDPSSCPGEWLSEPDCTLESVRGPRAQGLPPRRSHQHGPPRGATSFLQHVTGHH
The experiment in a line: Selectivity interaction (KinomeScan (DiscoverX)) EUB0000263b HIPK4. The note with it: at 1 µM.

The target in assay [19] is T4, Mitogen-activated protein kinase 12 (Homo sapiens) (UniProt P53778).
T4 sequence (whole entry): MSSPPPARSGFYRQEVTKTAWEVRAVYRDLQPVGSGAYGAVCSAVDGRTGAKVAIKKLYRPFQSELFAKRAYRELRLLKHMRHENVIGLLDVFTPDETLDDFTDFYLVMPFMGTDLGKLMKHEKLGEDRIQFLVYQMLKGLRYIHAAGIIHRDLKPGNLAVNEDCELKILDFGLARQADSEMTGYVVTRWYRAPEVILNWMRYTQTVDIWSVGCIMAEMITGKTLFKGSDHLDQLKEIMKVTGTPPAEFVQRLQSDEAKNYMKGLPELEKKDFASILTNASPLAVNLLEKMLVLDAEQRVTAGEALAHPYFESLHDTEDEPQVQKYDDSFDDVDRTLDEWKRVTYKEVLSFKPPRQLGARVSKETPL
The experiment in a line: Selectivity interaction (KinomeScan (DiscoverX)) EUB0000263b MAPK12. Conditions: at 1 µM.

Assay [20] has as its target Voltage-dependent L-type calcium channel subunit alpha-1S (Homo sapiens) (UniProt Q13698). The experiment in a line: Selectivity interaction (CEREP panel (Eurofins)) EUB0000263b CACNA1S. Conditions: at 10 µM.
Assay [21] has the same target. The experiment in a line: Selectivity interaction (Enzyme panel (Eurofins-Cerep)) EUB0000263b CACNA1S. The note with it: at 10 µM.

Voltage-dependent L-type calcium channel subunit alpha-1S (Homo sapiens), sequence (Q13698 whole entry): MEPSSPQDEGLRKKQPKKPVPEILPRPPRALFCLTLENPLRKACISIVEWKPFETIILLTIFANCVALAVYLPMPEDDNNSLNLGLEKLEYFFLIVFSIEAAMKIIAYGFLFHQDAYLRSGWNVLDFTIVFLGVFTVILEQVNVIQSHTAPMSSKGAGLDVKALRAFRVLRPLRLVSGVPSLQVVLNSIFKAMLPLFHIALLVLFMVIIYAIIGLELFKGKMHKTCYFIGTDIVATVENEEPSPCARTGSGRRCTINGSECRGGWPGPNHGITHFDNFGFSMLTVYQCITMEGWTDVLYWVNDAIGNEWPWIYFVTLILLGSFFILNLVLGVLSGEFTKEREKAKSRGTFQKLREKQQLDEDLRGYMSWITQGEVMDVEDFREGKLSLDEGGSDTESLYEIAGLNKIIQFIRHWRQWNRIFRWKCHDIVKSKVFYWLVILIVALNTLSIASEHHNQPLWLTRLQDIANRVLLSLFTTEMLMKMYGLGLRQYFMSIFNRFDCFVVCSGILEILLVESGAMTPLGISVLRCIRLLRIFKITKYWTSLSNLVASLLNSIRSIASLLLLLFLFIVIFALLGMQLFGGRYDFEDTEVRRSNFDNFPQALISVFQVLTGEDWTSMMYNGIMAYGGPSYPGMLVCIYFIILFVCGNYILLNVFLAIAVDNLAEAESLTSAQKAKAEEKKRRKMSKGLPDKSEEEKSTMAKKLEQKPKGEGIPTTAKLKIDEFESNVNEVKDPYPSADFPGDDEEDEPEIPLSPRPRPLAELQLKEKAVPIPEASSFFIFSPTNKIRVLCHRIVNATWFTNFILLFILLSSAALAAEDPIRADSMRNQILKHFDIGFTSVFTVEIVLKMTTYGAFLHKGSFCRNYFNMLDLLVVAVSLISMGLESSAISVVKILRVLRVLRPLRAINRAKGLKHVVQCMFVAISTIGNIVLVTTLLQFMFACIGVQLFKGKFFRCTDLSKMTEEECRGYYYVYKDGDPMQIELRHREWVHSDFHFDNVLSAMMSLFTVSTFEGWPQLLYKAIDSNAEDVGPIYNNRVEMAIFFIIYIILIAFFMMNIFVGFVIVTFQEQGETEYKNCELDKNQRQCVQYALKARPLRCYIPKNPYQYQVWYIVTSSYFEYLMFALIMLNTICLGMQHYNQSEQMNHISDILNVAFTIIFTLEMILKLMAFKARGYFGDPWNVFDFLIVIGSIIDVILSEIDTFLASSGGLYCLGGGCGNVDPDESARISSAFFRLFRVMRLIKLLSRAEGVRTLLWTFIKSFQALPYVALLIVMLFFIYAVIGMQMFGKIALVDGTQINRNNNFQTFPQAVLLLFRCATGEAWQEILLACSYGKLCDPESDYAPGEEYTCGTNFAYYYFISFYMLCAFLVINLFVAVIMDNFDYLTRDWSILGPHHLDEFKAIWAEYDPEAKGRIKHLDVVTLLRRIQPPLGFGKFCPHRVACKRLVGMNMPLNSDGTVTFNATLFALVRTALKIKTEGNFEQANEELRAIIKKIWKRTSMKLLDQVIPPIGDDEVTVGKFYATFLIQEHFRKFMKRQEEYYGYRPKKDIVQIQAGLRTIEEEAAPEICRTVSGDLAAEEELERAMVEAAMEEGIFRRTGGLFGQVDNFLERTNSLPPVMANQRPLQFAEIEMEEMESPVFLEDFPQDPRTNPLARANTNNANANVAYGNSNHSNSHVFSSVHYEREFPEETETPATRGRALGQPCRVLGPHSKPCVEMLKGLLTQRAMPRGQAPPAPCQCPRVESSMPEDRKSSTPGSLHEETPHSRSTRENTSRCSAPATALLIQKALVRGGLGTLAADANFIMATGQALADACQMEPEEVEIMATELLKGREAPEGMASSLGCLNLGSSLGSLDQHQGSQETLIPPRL
Megakaryocyte-associated tyrosine-protein kinase (Homo sapiens), sequence (P42679 whole entry): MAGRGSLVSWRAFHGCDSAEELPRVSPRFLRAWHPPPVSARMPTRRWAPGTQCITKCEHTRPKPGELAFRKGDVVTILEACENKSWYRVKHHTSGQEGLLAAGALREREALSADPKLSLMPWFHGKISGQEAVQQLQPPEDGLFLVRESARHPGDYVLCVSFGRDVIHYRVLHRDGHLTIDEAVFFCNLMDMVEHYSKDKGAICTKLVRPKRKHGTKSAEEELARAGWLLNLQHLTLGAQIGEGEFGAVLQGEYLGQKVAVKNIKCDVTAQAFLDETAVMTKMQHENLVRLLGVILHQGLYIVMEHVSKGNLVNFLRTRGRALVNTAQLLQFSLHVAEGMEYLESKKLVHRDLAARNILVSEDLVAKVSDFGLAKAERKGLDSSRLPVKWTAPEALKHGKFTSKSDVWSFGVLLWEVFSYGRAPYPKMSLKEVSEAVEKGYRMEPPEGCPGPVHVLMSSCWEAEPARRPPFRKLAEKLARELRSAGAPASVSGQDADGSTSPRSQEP
Maternal embryonic leucine zipper kinase (Homo sapiens), sequence (Q14680 whole entry, looked up): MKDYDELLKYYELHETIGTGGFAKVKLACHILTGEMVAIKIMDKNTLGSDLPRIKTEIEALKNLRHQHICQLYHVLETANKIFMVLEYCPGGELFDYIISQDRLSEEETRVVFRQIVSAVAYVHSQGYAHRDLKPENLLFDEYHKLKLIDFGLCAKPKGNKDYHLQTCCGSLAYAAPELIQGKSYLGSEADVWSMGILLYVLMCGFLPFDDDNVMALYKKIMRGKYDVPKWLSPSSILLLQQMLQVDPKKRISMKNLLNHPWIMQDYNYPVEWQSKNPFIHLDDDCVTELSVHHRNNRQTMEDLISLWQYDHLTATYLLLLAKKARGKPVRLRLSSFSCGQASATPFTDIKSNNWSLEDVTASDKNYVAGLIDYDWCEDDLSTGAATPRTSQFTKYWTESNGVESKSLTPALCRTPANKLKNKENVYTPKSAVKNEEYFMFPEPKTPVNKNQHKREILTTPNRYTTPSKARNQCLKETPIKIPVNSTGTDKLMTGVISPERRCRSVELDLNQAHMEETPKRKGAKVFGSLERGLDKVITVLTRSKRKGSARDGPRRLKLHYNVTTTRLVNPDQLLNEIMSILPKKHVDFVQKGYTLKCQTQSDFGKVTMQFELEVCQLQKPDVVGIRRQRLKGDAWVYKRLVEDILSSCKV
Ephrin type-B receptor 3 (Homo sapiens), sequence (P54753 whole entry): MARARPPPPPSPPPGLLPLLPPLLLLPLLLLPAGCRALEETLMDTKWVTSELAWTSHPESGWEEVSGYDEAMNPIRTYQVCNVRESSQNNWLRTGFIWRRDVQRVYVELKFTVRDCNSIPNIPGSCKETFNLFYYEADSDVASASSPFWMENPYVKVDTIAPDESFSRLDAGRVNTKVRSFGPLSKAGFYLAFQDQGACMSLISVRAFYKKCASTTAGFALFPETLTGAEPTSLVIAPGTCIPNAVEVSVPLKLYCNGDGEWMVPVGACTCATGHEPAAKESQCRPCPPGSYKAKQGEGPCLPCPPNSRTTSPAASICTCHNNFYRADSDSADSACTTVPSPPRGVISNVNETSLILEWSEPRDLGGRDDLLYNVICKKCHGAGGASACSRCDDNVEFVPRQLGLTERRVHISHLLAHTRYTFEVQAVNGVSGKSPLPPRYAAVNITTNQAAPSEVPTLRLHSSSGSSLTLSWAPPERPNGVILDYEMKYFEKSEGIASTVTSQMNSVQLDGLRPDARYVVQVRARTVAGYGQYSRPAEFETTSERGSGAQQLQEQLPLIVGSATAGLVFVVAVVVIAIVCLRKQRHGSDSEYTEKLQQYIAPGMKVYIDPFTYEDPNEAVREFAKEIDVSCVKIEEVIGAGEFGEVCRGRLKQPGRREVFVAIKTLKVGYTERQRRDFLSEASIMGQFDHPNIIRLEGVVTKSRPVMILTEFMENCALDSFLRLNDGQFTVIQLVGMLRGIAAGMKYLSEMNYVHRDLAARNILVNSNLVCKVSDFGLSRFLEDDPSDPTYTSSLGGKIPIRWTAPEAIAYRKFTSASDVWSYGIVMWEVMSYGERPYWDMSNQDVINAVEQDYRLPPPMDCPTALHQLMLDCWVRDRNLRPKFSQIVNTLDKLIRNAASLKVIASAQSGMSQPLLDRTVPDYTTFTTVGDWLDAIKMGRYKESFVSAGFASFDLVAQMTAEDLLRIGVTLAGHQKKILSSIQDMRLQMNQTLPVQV
Serine/threonine-protein kinase Nek5 (Homo sapiens), sequence (Q6P3R8 whole entry): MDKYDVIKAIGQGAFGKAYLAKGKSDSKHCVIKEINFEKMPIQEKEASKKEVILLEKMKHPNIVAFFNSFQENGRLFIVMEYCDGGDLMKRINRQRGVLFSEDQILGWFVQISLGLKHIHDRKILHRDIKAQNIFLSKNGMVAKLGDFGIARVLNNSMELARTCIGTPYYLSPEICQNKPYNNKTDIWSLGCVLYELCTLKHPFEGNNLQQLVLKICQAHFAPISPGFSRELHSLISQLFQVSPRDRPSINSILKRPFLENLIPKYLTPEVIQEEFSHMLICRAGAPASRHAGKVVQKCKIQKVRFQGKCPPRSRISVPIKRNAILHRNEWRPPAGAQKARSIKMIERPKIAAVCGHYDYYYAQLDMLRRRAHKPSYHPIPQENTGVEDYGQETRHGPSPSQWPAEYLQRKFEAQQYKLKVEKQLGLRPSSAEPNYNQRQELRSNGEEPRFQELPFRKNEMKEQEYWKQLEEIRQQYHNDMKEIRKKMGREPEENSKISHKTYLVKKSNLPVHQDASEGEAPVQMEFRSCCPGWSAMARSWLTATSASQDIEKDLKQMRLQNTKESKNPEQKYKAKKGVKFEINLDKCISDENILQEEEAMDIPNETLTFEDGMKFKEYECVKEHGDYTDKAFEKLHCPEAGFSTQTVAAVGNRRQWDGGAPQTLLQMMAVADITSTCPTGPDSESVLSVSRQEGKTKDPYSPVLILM

With `Cn1cncc1[C@@](O)(COc1ccc(C#N)cc1-c1ccc(OC(F)(F)F)cc1)c1ccc(C#N)cc1`, the % of control in assay [1] was 3%; in assay [2], 38%; in assay [3], 12%; in assay [4], 6.2%; in [5], 6.1%; in assay [6], 6%.

Turning to `CCCOc1ccc([C@H]2[C@H](C(=O)O)[C@@H](c3ccc4c(c3)OCO4)CN2CC(=O)Nc2c(CC)cccc2CC)cc1`, in assay [7], the % of inhibition is 36%.

For `CSc1cccnc1N1CCN(Cc2nc3ccccc3[nH]2)CC1`, the % of control in assay [8] was 59%; in assay [9] it was 31%; in assay [10], 45%; in assay [11], 46%.

On to `COc1ccc(Oc2cc(NCCC(F)(F)F)c3ncc(-c4ccc(C(=O)NC5CC5)c(C)c4)n3n2)c(F)c1F`, for which the % of control in [12] turned out to be 0%; in [13], 4%; in [14], 2%.

In the case of `CCCOc1ccc([C@@H]2[C@@H](C(=O)O)[C@H](c3ccc4c(c3)OCO4)CN2CC(=O)Nc2c(CC)cccc2CC)cc1`, the % of control worked out at 52% in assay [15], 55% in [16] and 55% in [17].

On to `CO[C@H]1CC[C@H](CNc2ccc(S(=O)(=O)NC(=O)c3ccc(N4CCN(CC5=C(c6ccc(Cl)cc6)CC(C)(C)CC5)CC4)cc3Oc3cnc4[nH]ccc4c3)cc2[N+](=O)[O-])CC1`, for which the results for the % of control in [18] and in assay [19] were 4.4% and 47%, respectively. In addition, the % of inhibition in assay [20] and in assay [21] was 63.2% in each case.
